In the oligonucleotide strings, read from the 5' end, every base follows the letter of its sugar. An asterisk marks phosphorothioate; unmarked linkages are phosphodiester. Other units and linkages are bracketed, terminal groups are in braces. A string of capitals states the bases alone. e = 2'-O-(2-methoxyethyl) (MOE); [5mC] = 5-methylcytosine
What was measured:
[1] = tested on: HSL; assay: HSL mRNA expression in adipocytes (real-time PCR); format: cell-based, human; conditions: differentiating adipocytes transfected with oligomeric compound; Table 75
[2] = tested on: Glut4; assay: Glut4 mRNA expression in adipocytes (real-time PCR); format: cell-based, human; conditions: differentiating adipocytes transfected with oligomeric compound; Table 75
[3] = tested on: PEPCK-c; assay: PEPCK-c mRNA expression in HepG2 cells; format: cell-based, human; conditions: for PEPCKc mRNA expression: Experiment 2, insulin treated: HepG2 cells transfected with oligomeric compound, 1 nM insulin for four hours, UTC + 1 nM insulin = 100; for PEPCKc mRNA: HepG2 cells, Experiment 1, basal (no insulin), four hours, UTC = 100
[4] = tested on: follistatin; assay: Follistatin mRNA expression in HepG2 cells; format: cell-based, human; conditions: for Follistatin mRNA expression: Experiment 2, insulin treated: HepG2 cells transfected with oligomeric compound, 1 nM insulin for four hours, UTC + 1 nM insulin = 100; for Follistatin mRNA: HepG2 cells, Experiment 1, basal (no insulin), four hours, UTC = 100
[5] = tested on: HuVECs; assay: Endothelial tube formation assay in HuVECs; conditions: 75 nM oligomeric compound

Substance	HSL mRNA [1]	GLUT4 mRNA [2]	PEPCKc mRNA expression [3]	PEPCKc mRNA [3]	Follistatin mRNA expression [4]	Follistatin mRNA [4]	% Activity Relative to UTC (tube formation) ([5]; Table 59) [%]	% Activity Relative to UTC (tube formation) ([5]; Table 58) [%]	reduction of PEPCK-c mRNA expression ([3]; HepG2, 1 nM insulin, 100 nM) [%]	decrease in PEPCK-c mRNA ([3]; HepG2, basal (no insulin), 100 nM) [%]	% Activity Relative to UTC (tube formation) ([5]; Table 56) [%]
327965 (antisense eA*eT*e[5mC]*eA*e[5mC]*eA*eT*eA*eG*eG*eA*eA*eT*eA*eA*eA*eA*eA*eG*e[5mC]*e[5mC]*eA*eT*eA) [compound 327965]	84 percentage of untreated control (UTC)	88 percentage of untreated control (UTC)	64	63	79	95	100.0				
327959 (antisense e[5mC]*eA*eG*e[5mC]*e[5mC]*eG*e[5mC]*eT*eG*eT*e[5mC]*eA*e[5mC]*eA*e[5mC]*eG*e[5mC]*eA*e[5mC]*eA*eG) [compound 327959]	11 percentage of untreated control (UTC)	152 percentage of untreated control (UTC)	156	139	92	98	40.0				
327952 (antisense e[5mC]*eT*eA*e[5mC]*eG*e[5mC]*eG*eT*eA*eT*eT*e[5mC]*eT*eT*eA*eA*eG*e[5mC]*eA*eA*eT*eA) [compound 327952]	64 percentage of untreated control (UTC)	61 percentage of untreated control (UTC)	85	70	100	93	53.3				
327971 (antisense eG*eG*eA*eA*eA*eT*e[5mC]*e[5mC]*e[5mC]*eT*eG*eG*e[5mC]*eA*eA*eT*eG*eT*eG*eA*eT) [compound 327971]	38 percentage of untreated control (UTC)	60 percentage of untreated control (UTC)									
327958 (antisense e[5mC]*e[5mC]*eG*eG*e[5mC]*eT*eG*e[5mC]*eA*eA*e[5mC]*eA*e[5mC]*eA*eA*eG*eA*e[5mC]*eA*e[5mC]*eG*eA) [compound 327958]	5 percentage of untreated control (UTC)	5 percentage of untreated control (UTC)	106	73	112	91	40.0				
327945 (antisense e[5mC]*eT*eG*eT*eT*e[5mC]*e[5mC]*eT*eG*e[5mC]*eT*eG*eA*eA*e[5mC]*eT*eG*eA*eG*e[5mC]*e[5mC]*eA) [compound 327945]	41 percentage of untreated control (UTC)	26 percentage of untreated control (UTC)						59.3			
327924 (antisense eG*e[5mC]*eA*eA*eG*e[5mC]*e[5mC]*e[5mC]*eA*eG*eA*e[5mC]*e[5mC]*eG*e[5mC]*eA*eA*eA*eA*eA*eG) [compound 327924]								88.9			
327950 (antisense eT*e[5mC]*eA*eG*eT*eT*eT*eT*eG*e[5mC]*eA*eT*eA*eG*eA*eT*eT*eT*eG*e[5mC]*eA*e[5mC]*eA) [compound 327950]	94 percentage of untreated control (UTC)	104 percentage of untreated control (UTC)	82	65	89	83	73.3				
327944 (antisense eA*eA*eA*eG*eT*eG*eT*e[5mC]*eA*eG*eA*eT*eA*e[5mC]*eG*eG*eT*eG*eT*eG*eG) [compound 327944]	55 percentage of untreated control (UTC)	28 percentage of untreated control (UTC)						37.0			
327946 (antisense eA*eG*eG*e[5mC]*eG*eA*eA*eG*eG*eA*eT*eG*eA*e[5mC]*eA*eA*eA*eG*eG*eG*eA*eA) [compound 327946]	76 percentage of untreated control (UTC)	68 percentage of untreated control (UTC)	99	90	109	103		51.9			
327949 (antisense e[5mC]*eA*e[5mC]*eA*eA*eA*eT*eT*e[5mC]*eG*eG*eA*eT*e[5mC]*eT*eA*e[5mC]*eA*eG*eG*eG*eT*eA) [compound 327949]	49 percentage of untreated control (UTC)	20 percentage of untreated control (UTC)	101	81	111	112	66.7				
327957 (antisense e[5mC]*eA*e[5mC]*eA*eA*eG*eT*eT*e[5mC]*eG*eG*eA*eT*e[5mC]*eT*eA*e[5mC]*eG*eG*eG*eT*eT) [compound 327957]	15 percentage of untreated control (UTC)	11 percentage of untreated control (UTC)	88	59	73	69	66.7				
CTAGTGGTCCTAAACATTTCAC (chemistry not given here) [ISIS 327878, uniform 2′-MOE PS; targets mir-203]									71	55	
327963 (antisense eA*eA*e[5mC]*e[5mC]*eT*eA*eT*e[5mC]*e[5mC]*eT*eG*eA*eA*eT*eT*eA*e[5mC]*eT*eT*eG*eA*eA) [compound 327963]	89 percentage of untreated control (UTC)	91 percentage of untreated control (UTC)	94	92	95	101	93.3				
327935 (antisense e[5mC]*eT*eA*e[5mC]*e[5mC]*eT*eG*e[5mC]*eA*e[5mC]*eT*eA*eT*eA*eA*eG*e[5mC]*eA*e[5mC]*eT*eT*eT*eA) [compound 327935]	61 percentage of untreated control (UTC)	47 percentage of untreated control (UTC)						74.1			
327961 (antisense eG*eG*eG*eG*eT*eA*eT*eT*eT*eG*eA*e[5mC]*eA*eA*eA*e[5mC]*eT*eG*eA*e[5mC]*eA) [compound 327961]	88 percentage of untreated control (UTC)	101 percentage of untreated control (UTC)	126	98	128	113	53.3				
327873 (antisense e[5mC]*eT*eA*e[5mC]*e[5mC]*eA*eT*eA*eG*eG*eG*eT*eA*eA*eA*eA*e[5mC]*e[5mC]*eA*e[5mC]*eT) [compound 327873]	116 percentage of untreated control (UTC)	106 percentage of untreated control (UTC)		72		97					100.0
327936 (antisense eA*e[5mC]*eA*eG*e[5mC]*eT*eG*eG*eT*eT*eG*eA*eA*eG*eG*eG*eG*eA*e[5mC]*e[5mC]*eA*eA) [compound 327936]	40 percentage of untreated control (UTC)	6 percentage of untreated control (UTC)						51.9			
327964 (antisense e[5mC]*e[5mC]*eA*eA*eG*eT*eT*e[5mC]*eT*eG*eT*e[5mC]*eA*eT*eG*e[5mC]*eA*e[5mC]*eT*eG*eA) [compound 327964]	102 percentage of untreated control (UTC)	114 percentage of untreated control (UTC)	122	74	114	97	86.7				
327940 (antisense eG*eA*eA*e[5mC]*eA*eG*eG*eT*eA*eG*eT*e[5mC]*eT*eG*eA*eA*e[5mC]*eA*e[5mC]*eT*eG*eG*eG) [compound 327940]	67 percentage of untreated control (UTC)	43 percentage of untreated control (UTC)						59.3			
